US8778685B2 (priority 2009, dated 2014)

Key:
[1] = no unit, species or route given; in mg/kg; cited from earlier work
[2] = in vivo

Compound	LD50 value [1]	times less toxic than sodium cyanide [2]
CC(C)(O)C#N [acetone cyanohydrin]	18.65	–
N#CC(O)c1ccccc1 (stereo not drawn) [mandelonitrile]	116	approximately 18
